Here are results for 26 molecules from US10669268B2, “Bicyclic derivatives” (Hoffmann-La Roche Inc., priority 2012, dated 2020).

Where a name gives a salt, the structure may show the parent alone.

This assay deals with ATX (human His-tagged) (Homo sapiens (Human), UniProt Q13822). Briefly: Human ATX enzyme inhibition assay (fluorescence quenching, MR121 substrate). The format is biochemical. As to conditions: 30 nM ATX, 1 μM MR121 substrate, 30° C., pH 8.0. In short, it runs like this: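 Tris-HCl buffer at pH 8.0 contained 140 mM NaCl, 5 mM KCl, 1 mM each CaCl2 and MgCl2, and 0.01% Triton X-100. The MR121 substrate (1 μM final) was incubated with enzyme for 15 min at 30 °C, and activity was read by fluorescence quenching.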
`O=C(CCc1ccccc1C1CC1)N1CC[C@@H]2CN(C(=O)c3ccc4[nH]nnc4c3)C[C@@H]2CC1` [Example 17.19, 1-((3aR,8aS)-2-(1H-benzo[d][1,2,3]triazole-5-carbonyl)octahydropyrrolo[3,4-d]azepin-6(7H)-yl)-3-(2-cyclopropylphenyl)propan-1-one]: the IC50 was 12 nM.
For the molecule `COc1cc(CCC(=O)N2C[C@@H]3CN(C(=O)c4ccc5[nH]nnc5c4)C[C@H]3C2)cc(OC(F)(F)F)c1` [Example 17.20, 1-[(3aR,6aR)-5-(1H-benzotriazole-5-carbonyl)-1,3,3a,4,6,6a-hexahydropyrrolo[3,4-c]pyrrol-2-yl]-3-[3-methoxy-5-(trifluoromethoxy)phenyl]propan-1-one], the IC50 worked out at 2 nM.
In the case of `O=C(/C=C/c1ccc(OC(F)(F)F)cc1)N1CC[C@@H]2CN(C(=O)[C@@H]3Cc4[nH]cnc4CN3)C[C@@H]2CC1` [Example 18, (E)-3-[4-(Trifluoro-methoxy)-phenyl]-1-[(3aS,8aR)-2-((S)-4,5,6,7-tetrahydro-1H-imidazo[4,5-c]pyridine-6-carbonyl)-octahydro-pyrrolo[3,4-d]azepin-6-yl]-prop-2-en-1-one hydrochloride] it was 6740 nM; in that of `Cc1ccc(C(C)C)c(OCC(=O)N2C[C@@H]3CN(C(=O)c4ccc5[nH]nnc5c4)C[C@H]3C2)c1` [Example 19, 1-[(3aS,6aS)-5-(1H-benzotriazole-5-carbonyl)-hexahydro-pyrrolo[3,4-c]pyrrol-2-yl]-2-(2-isopropyl-5-methyl-phenoxy)-ethanone], 7 nM.
Turning to `O=C(COc1ccc(OC(F)(F)F)cc1Br)N1C[C@@H]2CN(C(=O)c3ccc4[nH]nnc4c3)C[C@H]2C1` [Example 19.01, 1-[(3aS,6aS)-5-(1H-benzotriazole-5-carbonyl)-hexahydro-pyrrolo[3,4-c]pyrrol-2-yl]-2-(2-bromo-4-trifluoromethoxy-phenoxy)-ethanone], the IC50 amounted to 12 nM.
As for `O=C(c1ccc(-c2ccc(Cl)cc2)cc1)N1C[C@@H]2CN(C(=O)c3ccc4[nH]nnc4c3)C[C@H]2C1` [Example 19.02, (1H-benzotriazol-5-yl)-[(3aR,6aR)-5-(4′-chloro-biphenyl-4-carbonyl)-hexahydro-pyrrolo[3,4-c]pyrrol-2-yl]-methanone], the figure is 7 nM.
In the case of `CC(C)c1cc(C#N)ccc1OCC(=O)N1C[C@@H]2CN(C(=O)c3ccc4[nH]nnc4c3)C[C@H]2C1` [Example 19.03, 4-{2-[(3aS,6aS)-5-(1H-benzotriazole-5-carbonyl)-hexahydro-pyrrolo[3,4-c]pyrrol-2-yl]-2-oxo-ethoxy}-3-isopropyl-benzonitrile] it was 8 nM; in that of `CC(=O)c1ccccc1OCC(=O)N1C[C@@H]2CN(C(=O)c3ccc4[nH]nnc4c3)C[C@H]2C1` [Example 19.04, 2-(2-acetyl-phenoxy)-1-[(3aS,6aS)-5-(1H-benzotriazole-5-carbonyl)-hexahydro-pyrrolo[3,4-c]pyrrol-2-yl]-ethanone], 1710 nM.
On to `Cc1cc(OCC(=O)N2C[C@@H]3CN(C(=O)c4ccc5[nH]nnc5c4)C[C@H]3C2)c(C(C)C)cc1C#N` [Example 19.05, 4-{2-[(3aS,6aS)-5-(1H-benzotriazole-5-carbonyl)-hexahydro-pyrrolo[3,4-c]pyrrol-2-yl]-2-oxo-ethoxy}-5-isopropyl-2-methyl-benzonitrile], for which the 50% inhibitory concentration (IC50) came to 5 nM.
As for `O=C(c1ccc2ccccc2c1)N1C[C@@H]2CN(C(=O)c3ccc4[nH]nnc4c3)C[C@H]2C1` [Example 19.06, (1H-benzotriazol-5-yl)-[(3aR,6aR)-5-(naphthalene-2-carbonyl)-hexahydro-pyrrolo[3,4-c]pyrrol-2-yl]-methanone], the figure is 250 nM; as for `COc1cc(C(=O)N2C[C@@H]3CN(C(=O)c4ccc5[nH]nnc5c4)C[C@H]3C2)cc2ccccc12` [Example 19.07, (1H-benzotriazol-5-yl)-[(3aS,6aS)-5-(4-methoxy-naphthalene-2-carbonyl)-hexahydro-pyrrolo[3,4-c]pyrrol-2-yl]-methanone], 24 nM; as for `CCOc1cc(C#N)ccc1OCC(=O)N1C[C@@H]2CN(C(=O)c3ccc4[nH]nnc4c3)C[C@H]2C1` [Example 19.08, 4-{2-[(3aS,6aS)-5-(1H-benzotriazole-5-carbonyl)-hexahydro-pyrrolo[3,4-c]pyrrol-2-yl]-2-oxo-ethoxy}-3-ethoxy-benzonitrile], 36 nM.
`O=C(CCc1ccc(OC(F)(F)F)c(F)c1)N1C[C@@H]2CN(C(=O)c3ccc4[nH]nnc4c3)C[C@H]2C1` [Example 19.09, 1-[(3aR,6aR)-5-(1H-benzotriazole-5-carbonyl)-hexahydro-pyrrolo[3,4-c]pyrrol-2-yl]-3-(3-fluoro-4-trifluoromethoxy-phenyl)-propan-1-one]: the IC50 worked out at 10 nM.
In the case of `CC(C)c1cc(Cl)ccc1OCC(=O)N1C[C@@H]2CN(C(=O)c3ccc4[nH]nnc4c3)C[C@H]2C1` [Example 19.10, 1-[(3aS,6aS)-5-(1H-benzotriazole-5-carbonyl)-hexahydro-pyrrolo[3,4-c]pyrrol-2-yl]-2-(4-chloro-2-isopropyl-phenoxy)-ethanone] it was 6 nM.
In the case of `O=C(c1ccc(-c2ccc(Cl)cc2)cc1)N1C[C@@H]2CN(C(=O)[C@@H]3CCc4[nH]nnc4C3)C[C@H]2C1` [Example 19.11, [(3aS,6aS)-5-(4′-chloro-biphenyl-4-carbonyl)-hexahydro-pyrrolo[3,4-c]pyrrol-2-yl]-(R)-4,5,6,7-tetrahydro-1H-benzotriazol-5-yl-methanone] it was 8 nM; in that of `O=C(CCc1ccc(OC(F)(F)F)cc1)N1C[C@H]2CN(C(=O)c3ccc4[nH]nnc4c3)C[C@@H]2C1` [Example 19.12, 1-[(3aS,6aS)-5-(1H-benzotriazole-5-carbonyl)-hexahydro-pyrrolo[3,4-c]pyrrol-2-yl]-3-(4-trifluoromethoxy-phenyl)-propan-1-one], 10 nM.
In the case of `O=C(COc1ccccc1C1CCCO1)N1C[C@@H]2CN(C(=O)c3ccc4[nH]nnc4c3)C[C@H]2C1` (stereo partly drawn) [Example 19.14, 1-[(3aS,6aS)-5-(1H-benzotriazole-5-carbonyl)-hexahydro-pyrrolo[3,4-c]pyrrol-2-yl]-2-[2-(tetrahydro-furan-2-yl)-phenoxy]-ethanone] it was 273 nM.
As to `COc1cc(C(=O)N2C[C@H]3CN(C(=O)c4ccc5[nH]nnc5c4)C[C@@H]3C2)cc2ccccc12` [Example 19.15, (1H-benzotriazol-5-yl)-[(3aR,6aR)-5-(4-methoxy-naphthalene-2-carbonyl)-hexahydro-pyrrolo[3,4-c]pyrrol-2-yl]-methanone], the IC50 stood at 20 nM.
In the case of `CC(C)(C)c1ccccc1OCC(=O)N1C[C@@H]2CN(C(=O)c3ccc4[nH]nnc4c3)C[C@H]2C1` [Example 19.16, 1-[(3aS,6aS)-5-(1H-benzotriazole-5-carbonyl)-hexahydro-pyrrolo[3,4-c]pyrrol-2-yl]-2-(2-tert-butyl-phenoxy)-ethanone] it was 31 nM.
As to `O=C(c1ccc2[nH]nnc2c1)N1C[C@H]2CN(C(=O)[C@H]3CC[C@H](c4ccc(Cl)cc4)CC3)C[C@@H]2C1` [Example 19.17, [(3aR,6aR)-5-(1H-benzotriazole-5-carbonyl)-hexahydro-pyrrolo[3,4-c]pyrrol-2-yl]-[trans-4-(4-chloro-phenyl)-cyclohexyl]-methanone], the IC50 turned out to be 10 nM.
As for `Cc1cc(CCC(=O)N2C[C@@H]3CN(C(=O)c4ccc5[nH]nnc5c4)C[C@H]3C2)c(C(C)C)cc1C#N` [Example 19.21, 4-[3-[(3aR,6aR)-5-(1H-benzotriazole-5-carbonyl)-1,3,3a,4,6,6a-hexahydropyrrolo[3,4-c]pyrrol-2-yl]-3-oxopropyl]-2-methyl-5-propan-2-ylbenzonitrile], the figure is 3 nM; as for `CC(C)c1cc(C#N)ccc1CCC(=O)N1C[C@@H]2CN(C(=O)c3ccc4[nH]nnc4c3)C[C@H]2C1` [Example 19.22, 4-[3-[(3aR,6aR)-5-(1H-benzotriazole-5-carbonyl)-1,3,3a,4,6,6a-hexahydropyrrolo[3,4-c]pyrrol-2-yl]-3-oxopropyl]-3-propan-2-ylbenzonitrile], 2 nM; as for `O=C(c1ccc2[nH]nnc2c1)N1C[C@H]2CN(C(=O)C3CCN(c4ccc(Cl)cc4)CC3)C[C@@H]2C1` [Example 19.23, [(3aR,6aR)-5-[1-(4-chlorophenyl)piperidine-4-carbonyl]-1,3,3a,4,6,6a-hexahydropyrrolo[3,4-c]pyrrol-2-yl]-(1H-benzotriazol-5-yl)methanone], 25 nM.
As for `CC(C)Oc1cc(C(=O)N2C[C@@H]3CN(C(=O)[C@@H]4CCc5[nH]nnc5C4)C[C@H]3C2)cc2ccccc12` [Example 19.24, [(3aS,6aS)-5-[(5R)-4,5,6,7-tetrahydro-1H-benzotriazole-5-carbonyl]-1,3,3a,4,6,6a-hexahydropyrrolo[3,4-c]pyrrol-2-yl]-(4-propan-2-yloxynaphthalen-2-yl)methanone], the figure is 7 nM.
In the case of `CC(C)Oc1cc(C(=O)N2C[C@@H]3CN(C(=O)[C@@H]4CCc5[nH]nnc5C4)C[C@H]3C2)nc2ccccc12` [Example 19.25, [(3aS,6aS)-5-[(5R)-4,5,6,7-tetrahydro-1H-benzotriazole-5-carbonyl]-1,3,3a,4,6,6a-hexahydropyrrolo[3,4-c]pyrrol-2-yl]-(4-propan-2-yloxyquinolin-2-yl)methanone] it was 15 nM; in that of `O=C(CCc1ccc(OC(F)(F)F)cc1F)N1C[C@@H]2CN(C(=O)[C@@H]3CCc4[nH]nnc4C3)C[C@H]2C1` [Example 19.26, 1-[(3aR,6aR)-5-[(5R)-4,5,6,7-tetrahydro-1H-benzotriazole-5-carbonyl]-1,3,3a,4,6,6a-hexahydropyrrolo[3,4-c]pyrrol-2-yl]-3-[2-fluoro-4-(trifluoromethoxy)phenyl]propan-1-one], 5 nM.
